Laboratory results published in patent US9656955B2, “Pyrrolidine derivatives, pharmaceutical compositions containing them, and their use in therapy” (AbbVie Deutschland GmbH & Co. KG, priority 2013, dated 2017).

Biological target: human GlyT1c transporter (Homo sapiens (Human), UniProt P48067)
Assay: Radioligand binding assays using recombinant CHO cell membranes expressing human GlyT1
Conditions: radioligand binding, human GlyT1c transporter-expressing CHO cell membranes

human GlyT1c transporter, sequence (P48067 whole entry): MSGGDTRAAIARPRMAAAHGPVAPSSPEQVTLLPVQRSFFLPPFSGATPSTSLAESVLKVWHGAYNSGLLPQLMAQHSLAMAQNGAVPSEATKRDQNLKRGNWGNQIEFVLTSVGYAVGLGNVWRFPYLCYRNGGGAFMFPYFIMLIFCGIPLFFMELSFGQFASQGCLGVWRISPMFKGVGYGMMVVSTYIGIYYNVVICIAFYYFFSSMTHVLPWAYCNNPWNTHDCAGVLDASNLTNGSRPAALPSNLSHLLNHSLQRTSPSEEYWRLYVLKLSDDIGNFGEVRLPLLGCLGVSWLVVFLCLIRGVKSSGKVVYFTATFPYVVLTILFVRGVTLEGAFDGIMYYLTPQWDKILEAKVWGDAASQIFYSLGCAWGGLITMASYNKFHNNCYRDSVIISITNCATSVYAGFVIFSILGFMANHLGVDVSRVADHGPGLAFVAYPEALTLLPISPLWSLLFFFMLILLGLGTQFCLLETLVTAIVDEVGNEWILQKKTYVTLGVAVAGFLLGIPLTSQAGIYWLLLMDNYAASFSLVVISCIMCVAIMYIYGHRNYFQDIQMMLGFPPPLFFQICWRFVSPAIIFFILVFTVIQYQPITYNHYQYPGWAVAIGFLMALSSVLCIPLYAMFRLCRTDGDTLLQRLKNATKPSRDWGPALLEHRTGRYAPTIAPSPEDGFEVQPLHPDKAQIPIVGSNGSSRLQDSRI

| SMILES | Ki [nM] |
| --- | --- |
| CC(C)OCCCNC(=O)[C@@H]1CN(S(=O)(=O)c2cn(C)cn2)C[C@H]1c1ccc(F)cc1 [Example 577, (3S,4R)-4-(4-fluorophenyl)-1-[(1-methyl-1H-imidazol-4-yl)sulfonyl]-N-[3-(propan-2-yloxy)propyl]pyrrolidine-3-carboxamide] | > 10000 |
| CCCCNC(=O)[C@@H]1CN(S(=O)(=O)c2cn(C)cn2)C[C@H]1c1ccc(F)cc1 [Example 581, (3S,4R)—N-butyl-4-(4-fluorophenyl)-1-[(1-methyl-1H-imidazol-4-yl)sulfonyl]pyrrolidine-3-carboxamide] | ≤ 100 |
| Cn1cnc(S(=O)(=O)N2CC(Nc3cccc(C(F)(F)F)c3)C(C3CCCO3)C2)c1 (stereo not shown) [Example 603, 1-[(1-methyl-1H-imidazol-4-yl)sulfonyl]-4-(tetrahydrofuran-2-yl)-N-[3-(trifluoromethyl)phenyl]pyrrolidin-3-amine] | ≤ 100 |
| Cn1cnc(S(=O)(=O)N2C[C@H](Nc3cccc(C(F)(F)F)c3)[C@@H](C3CCCO3)C2)c1 (stereo partly drawn) [Example 604, (3R,4S)-1-[(1-methyl-1H-imidazol-4-yl)sulfonyl]-4-(tetrahydrofuran-2-yl)-N-[3-(trifluoromethyl)phenyl]pyrrolidin-3-amine] | ≤ 100 |
| CCCOc1cc(N[C@H]2CN(S(=O)(=O)c3cn(C)cn3)C[C@@H]2c2ccccc2)ncn1 [Example 622, N-{(3R,4S)-1-[(1-methyl-1H-imidazol-4-yl)sulfonyl]-4-phenylpyrrolidin-3-yl}-6-propoxypyrimidin-4-amine] | ≤ 100 |
| CCCCOc1cc(N[C@H]2CN(S(=O)(=O)c3cn(C)cn3)C[C@@H]2c2ccccc2)ncn1 [Example 623, 6-butoxy-N-{(3R,4S)-1-[(1-methyl-1H-imidazol-4-yl)sulfonyl]-4-phenylpyrrolidin-3-yl}pyrimidin-4-amine] | ≤ 100 |
| CCCn1cc(C[C@@H]2CN(S(=O)(=O)c3cn(C)cn3)C[C@H]2c2ccccc2)nn1 [Example 659, 4-({(3S,4R)-1-[(1-methyl-1H-imidazol-4-yl)sulfonyl]-4-phenylpyrrolidin-3-yl}methyl)-1-propyl-1H-1,2,3-triazole] | ≤ 10000 |
| CCCCCCN[C@H]1CN(S(=O)(=O)c2cn(C)cn2)C[C@@H]1c1ccc(F)cc1 [Example 665, (3R,4S)-4-(4-fluorophenyl)-N-hexyl-1-[(1-methyl-1H-imidazol-4-yl)sulfonyl]pyrrolidin-3-amine] | ≤ 10 |
| CC(C)Oc1cc(N[C@H]2CN(S(=O)(=O)c3cn(C)cn3)C[C@@H]2c2ccc(F)cc2)ncn1 [Example 716, N-{(3R,4S)-4-(4-fluorophenyl)-1-[(1-methyl-1H-imidazol-4-yl)sulfonyl]pyrrolidin-3-yl}-6-(propan-2-yloxy)pyrimidin-4-amine] | ≤ 100 |
| Cn1cnc(S(=O)(=O)N2C[C@H](Nc3cc(OC4CCC4)ncn3)[C@@H](c3ccc(F)cc3)C2)c1 [Example 719, 6-(cyclobutyloxy)-N-{(3R,4S)-4-(4-fluorophenyl)-1-[(1-methyl-1H-imidazol-4-yl)sulfonyl]pyrrolidin-3-yl}pyrimidin-4-amine] | ≤ 100 |
| Cc1ccc(-c2cc(N[C@H]3CN(S(=O)(=O)c4cn(C)cn4)C[C@@H]3c3ccc(F)cc3)ncn2)cc1 [Example 725, N-{(3R,4S)-4-(4-fluorophenyl)-1-[(1-methyl-1H-imidazol-4-yl)sulfonyl]pyrrolidin-3-yl}-6-(4-methylphenyl)pyrimidin-4-amine] | ≤ 10 |
| Cn1cnc(S(=O)(=O)N2C[C@H](Nc3cc(-c4ccc(F)cc4)ncn3)[C@@H](c3ccc(F)cc3)C2)c1 [Example 728, 6-(4-fluorophenyl)-N-{(3R,4S)-4-(4-fluorophenyl)-1-[(1-methyl-1H-imidazol-4-yl)sulfonyl]pyrrolidin-3-yl}pyrimidin-4-amine] | ≤ 10 |
| Cn1cnc(S(=O)(=O)N2C[C@H](Nc3cc(-c4ccc(Cl)cc4)ncn3)[C@@H](c3ccc(F)cc3)C2)c1 [Example 730, 6-(4-chlorophenyl)-N-{(3R,4S)-4-(4-fluorophenyl)-1-[(1-methyl-1H-imidazol-4-yl)sulfonyl]pyrrolidin-3-yl}pyrimidin-4-amine] | ≤ 10 |
| Cc1ccc(CO[C@H]2CN(S(=O)(=O)c3cn(C)cn3)C[C@@H]2c2ccc(F)cc2)cc1 [Example 731, 4-({(3S,4R)-3-(4-fluorophenyl)-4-[(4-methylbenzyl)oxy]pyrrolidin-1-yl}sulfonyl)-1-methyl-1H-imidazole] | ≤ 100 |
| Cn1cnc(S(=O)(=O)N2C[C@H](Nc3ccc(F)c(-c4cccnc4)c3)[C@@H](c3ccc(F)cc3)C2)c1 [Example 745, (3R,4S)-4-(4-fluorophenyl)-N-[4-fluoro-3-(pyridin-3-yl)phenyl]-1-[(1-methyl-1H-imidazol-4-yl)sulfonyl]pyrrolidin-3-amine] | ≤ 10 |
| Cc1cc(N[C@H]2CN(S(=O)(=O)c3cn(C)cn3)C[C@@H]2c2ccc(F)cc2)ncc1F [Example 748, 5-fluoro-N-{(3R,4S)-4-(4-fluorophenyl)-1-[(1-methyl-1H-imidazol-4-yl)sulfonyl]pyrrolidin-3-yl}-4-methylpyridin-2-amine] | ≤ 10 |
| Cn1cnc(S(=O)(=O)N2C[C@H](NC(=O)CCC(C)(F)F)[C@@H](c3ccc(F)cc3)C2)c1 [Example 754, 4,4-difluoro-N-{(3R,4S)-4-(4-fluorophenyl)-1-[(1-methyl-1H-imidazol-4-yl)sulfonyl]pyrrolidin-3-yl}pentanamide] | ≤ 10000 |
| Cc1ncc(S(=O)(=O)N2C[C@H](Nc3ccc(F)c(F)c3)[C@@H](c3ccc(F)cc3)C2)n1C [Example 757, (3R,4S)—N-(3,4-difluorophenyl)-1-[(1,2-dimethyl-1H-imidazol-5-yl)sulfonyl]-4-(4-fluorophenyl)pyrrolidin-3-amine] | ≤ 10000 |
| Cn1cnc(S(=O)(=O)N2C[C@H](Nc3cc(Cl)ccn3)[C@@H](c3ccc(F)cc3)C2)c1 [Example 759, 4-chloro-N-{(3R,4S)-4-(4-fluorophenyl)-1-[(1-methyl-1H-imidazol-4-yl)sulfonyl]pyrrolidin-3-yl}pyridin-2-amine] | ≤ 10 |
| Cn1cnc(S(=O)(=O)N2C[C@H](Nc3cccc(C4CCNCC4)c3)[C@@H](c3ccccc3)C2)c1 [Example 777, (3R,4S)-1-[(1-methyl-1H-imidazol-4-yl)sulfonyl]-4-phenyl-N-[3-(piperidin-4-yl)phenyl]pyrrolidin-3-amine] | ≥ 10000 |
| Cn1cnc(S(=O)(=O)N2C[C@H](Nc3cc(OCC4CNC4)ncn3)[C@@H](c3ccc(F)cc3)C2)c1 [Example 778, 6-(azetidin-3-ylmethoxy)-N-{(3R,4S)-4-(4-fluorophenyl)-1-[(1-methyl-1H-imidazol-4-yl)sulfonyl]pyrrolidin-3-yl}pyrimidin-4-amine] | ≥ 10000 |
| Cn1cnc(S(=O)(=O)N2C[C@H](Nc3cc(OCC(F)(F)F)c(Cl)cn3)[C@@H](c3ccccc3)C2)c1 [Example 808, 5-chloro-N-{(3R,4S)-1-[(1-methyl-1H-imidazol-4-yl)sulfonyl]-4-phenylpyrrolidin-3-yl}-4-(2,2,2-trifluoroethoxy)pyridin-2-amine] | ≤ 10 |
| Cn1cnc(S(=O)(=O)N2CC(NCc3ccc(C(F)(F)F)cc3Cl)C([C@@H]3CCCO3)C2)c1 (stereo partly drawn) [Example 823, N-[2-chloro-4-(trifluoromethyl)benzyl]-1-[(1-methyl-1H-imidazol-4-yl)sulfonyl]-4-[(2S)tetrahydrofuran-2-yl]pyrrolidin-3-amine] | ≤ 1000 |
| Cn1cc(S(=O)(=O)N2C[C@H](Nc3ccc(F)c(OC(F)(F)F)c3)[C@@H](c3ccc(F)cc3)C2)nn1 [Example 838, (3R,4S)-4-(4-fluorophenyl)-N-[4-fluoro-3-(trifluoromethoxy)phenyl]-1-[(1-methyl-1H-1,2,3-triazol-4-yl)sulfonyl]pyrrolidin-3-amine] | ≤ 10 |
| Cn1cc(S(=O)(=O)N2C[C@H](Nc3cccc(Cl)c3)[C@@H](c3ccc(F)cc3)C2)nn1 [Example 841, (3R,4S)—N-(3-chlorophenyl)-4-(4-fluorophenyl)-1-[(1-methyl-1H-1,2,3-triazol-4-yl)sulfonyl]pyrrolidin-3-amine] | ≤ 10 |
